According to patent US20010044404A1, “Cleaning process and composition” (3M Innovative Properties Company, priority 1995, published 2001):

Experiments:
[1] = Stability in the presence of base: aqueous NaOAc, fluoride ion measurement; assay type: physicochemical; settings: 10 g with 10 g 0.1M NaOAc, 110° C., 16 hours
Experimental: To assess hydrolytic stability, a ten gram sample of alkoxy-substituted perfluorocompound was combined with 10 g of 0.1M NaOAc and sealed in a 2.54 cm (internal diameter) by 9.84 cm Monel™ 400 alloy (66% nickel, 31.5% copper, and 1.2% iron and several minor components) tube (available from Paar Instrument Co. of Moline, Ill. as Part Number 4713cm). The tube was heated at 110° C. in a forced air convection oven for 16 hours. After cooling to room temperature, a 1 mL sample of the tube contents was diluted with 1 mL of total ionic strength adjustment buffer (TISAB, available from Orion Research, Inc., a mixture of 1,2-cyclohexylene dinitrilotetraacetic acid, deionized water, sodium acetate, sodium chloride, and acetic acid). The concentration of fluoride ion (resulting from any reaction of the perfluorocompound with the aqueous NaOAc) was measured using an Orion Model 720A Coulombmeter with a F-specific electrode which had been previously calibrated using 0.5 and 500 ppm F^− solutions. Based on the measured fluoride ion concentration, the rate at which HF had been generated by reaction of the aqueous NaOAc with the perfluorocompound was calculated.

[2] = Hydrolytic stability under more severely basic conditions (aqueous KOH reflux); assay type: physicochemical; settings: refluxed at 58° C. for 19 hours
Experimental: To assess hydrolytic stability under more severely basic conditions, C4F9OCH3 (125 g of 99.8% purity, 0.5 mole) was combined with potassium hydroxide ([…], dissolved in 26.1 g water) in a 250 mL flask equipped with an overhead stirrer, a condenser, and a thermometer, and the resulting solution was refluxed at 58° C. for 19 hours. Water (50 mL) was added to the solution after refluxing, and the resulting product was distilled. The lower fluorochemical phase of the resulting distillate was separated from the upper phase and was washed with water (100 mL) to yield 121.3 g of recovered C4F9OCH3, which was identical in purity and composition to the starting material (as shown by gas chromatography).

[3] = Flash point testing ASTM D3278-89; assay type: physicochemical
Experimental: The alkoxy-substituted perfluorocompounds C4F9OCH3, C4F9OC2H5, and c-C6F11OCH3 were tested for flash point by the standard method defined by ASTM D3278-89.

[4] = Pump oil removal with n-C6H14/perfluorocompound mixture at room temperature, ultrasonic; settings: 40 volume % n-C6H14, 60 volume % fluorinated component, 60 seconds
Experimental: The above-described test coupon was dipped into DuoSeal Pump Oil (available from Sargent-Welch) and was then immersed in a mixture of 40 volume % n-C6H14 and 60 volume % alkoxy-substituted perfluorocompound (a cleaning composition of the invention) for 60 seconds at room temperature with ultrasonic agitation. The percent oil removal was determined in the above-described manner.

[5] = Pump oil removal in vapor of boiling n-C6H14/perfluorocompound mixture; settings: vapor of boiling 40 volume % n-C6H14, 60 volume % fluorinated component; 60 seconds
Experimental: The above-described test coupon was dipped into DuoSeal Pump Oil (available from Sargent-Welch) and was then immersed in the vapor of a boiling mixture of 40 volume % n-C6H14 and 60 volume % alkoxy-substituted perfluorocompound (a cleaning composition of the invention), for 60 seconds. The percent oil removal was determined in the above-described manner.

[6] = Open cup flash point ASTM D1310-86; assay type: physicochemical
Experimental: Various properties were measured for C4F9OCH3, CHClFCF2OCH3, and blends of each ether compound with cosolvent, trans-1,2-dichloroethylene (hereinafter, t-DCE) or n-butyl bromide, at various weight ratios.

[7] = Solvency properties: largest normal hydrocarbon alkane soluble at 50 percent by volume
Experimental: A number of potential solvents were tested for their ability to dissolve hydrocarbons of increasing molecular weight according to the procedure described in U.S. Pat. No. 5,275,669 (Van Der Puy et al.), the description of which is incorporated herein by reference. The data shown in Table 1 were obtained by determining the largest normal hydrocarbon alkane which was soluble in a particular solvent at a level of 50 percent by volume. The numbers in the Table correspond with the carbon number of the largest alkane, e.g., “8” refers to octane. Measurements were made from room temperature up to the boiling point of the solvent. For comparative purposes, hydrofluorocarbons (HFCs) and perfluorocarbons (PFCs) were also tested using this method.
Using essentially the above-described method, the solvency properties of other alkoxy-substituted perfluorocompounds were tested at room temperature.

COC(F)(F)C(F)(F)C(F)(F)C(F)(F)F [Example C4F9OCH3, perfluorobutyl methyl ether]
HF Generation Rate [1]: 0.67 µg/g/h
Stability in the presence of base [2]: stable in the presence of the base
Flash point [3]: no flash point
Percent Soil Removed [4]: 92.5%
Percent Soil Removed [5]: 90.8%
Open Cup Flash Point (ASTM D1310-86) ([6]; 20 weight % ether, 80 % t-DCE): none
Open Cup Flash Point (ASTM D1310-86) ([6]; 50 weight % ether, 50 % t-DCE): none
Open Cup Flash Point (ASTM D1310-86) ([6]; 80 weight % ether, 20 % t-DCE): none
Open Cup Flash Point (ASTM D1310-86) ([6]; 100 weight % ether, 0 % t-DCE): none
Largest Carbon Number of Longest Hydrocarbon Alkane to Dissolve ([7]; 20 weight % ether, 80 % n-butyl bromide): 21
Largest Carbon Number of Longest Hydrocarbon Alkane to Dissolve ([7]; 20 weight % ether, 80 % t-DCE): 22
Largest Carbon Number of Longest Hydrocarbon Alkane to Dissolve ([7]; 30 weight % ether, 70 % n-butyl bromide): 21
Largest Carbon Number of Longest Hydrocarbon Alkane to Dissolve ([7]; 50 weight % ether, 50 % n-butyl bromide): 15
Largest Carbon Number of Longest Hydrocarbon Alkane to Dissolve ([7]; 50 weight % ether, 50 % t-DCE): 16
Largest Carbon Number of Longest Hydrocarbon Alkane to Dissolve ([7]; 80 weight % ether, 20 % n-butyl bromide): 11
Largest Carbon Number of Longest Hydrocarbon Alkane to Dissolve ([7]; 80 weight % ether, 20 % t-DCE): 11
Largest Carbon Number of Longest Hydrocarbon Alkane to Dissolve ([7]; 100 weight % ether, 0 % n-butyl bromide): 9
Largest Carbon Number of Longest Hydrocarbon Alkane to Dissolve ([7]; 100 weight % ether, 0 % t-DCE): 9
